From patent publication US4209588A, “Process for producing new antitumor anthracycline antibiotics” (Zaidan Hojin Biseibutsu Kagaku Kenkyu Kai, priority 1976, dated 1980)
In brackets after ≈: the same amount, converted by molar mass.

Tests used:
L1210 cells = experiment: Growth inhibition of cultured L1210 cells; settings: Mus musculus, L1210, read-out: % Inhibition, Growth (on Day 2)
[1] = test system: Ps. fluoroescens NIHJB-254; experiment: Minimum inhibitory concentration, broth dilution method
Bac. cereus ATCC 9634 = experiment: as above; settings: Bacillus cereus, ATCC9634
[2] = test system: solid and ascitic-type mammalian malignant tumors; experiment: Inhibitory action against solid and ascitic-type mammalian malignant tumors; type: in vivo, mammals
Bac. subtilis ATCC 6633 = experiment: Minimum inhibitory concentration, broth dilution method; settings: Bacillus subtilis, ATCC6633
Can. albicans IAM 4905 = experiment: as above; settings: Candida albicans, IAM4905
[3] = Acute toxicity, single intraperitoneal injection; settings: mouse, in vivo, ip; single i.p. injection, dd mice; read-out: LD50, intraperitoneal administration
Can. tropicalis IAM 4942 = experiment: Minimum inhibitory concentration, broth dilution method; settings: Candida tropicalis, IAM4942
[4] = test system: Bac. megaterium NRRL B-938; experiment: as above; settings: Priestia megaterium, NRRLB938
Staph. aureus FDA 209P = experiment: as above; settings: Staphylococcus aureus, FDA209P
P388 leukemia = experiment: Inhibition of growth of P388 leukemia in mice; type: in vivo
Pr. morganii = experiment: Minimum inhibitory concentration, broth dilution method; settings: Morganella morganii
Staph. aureus Smith = experiment: as above; settings: Staphylococcus aureus
[5] = test system: Mycobact. smegmatis ATCC 607; experiment: as above
Corv. bovis 1810 = experiment: as above
Mic. flavus = experiment: as above; settings: Micrococcus flavus
Sar. lutea ATCC 9341 = experiment: as above; settings: Micrococcus luteus, ATCC9341
[6] = solid and ascitic-type mammalian tumors, in words
[7] = P388 leukemia in mice, in words

Row | Structure (SMILES) | inhibition at 0.1 µg/mL (L1210 cells) [%] | MIC [1] [µg/mL] | MIC (Bac. cereus ATCC 9634) [µg/mL] | inhibitory action against malignant tumors ([2]; in vivo) | MIC (Bac. subtilis ATCC 6633) [µg/mL] | MIC (Can. albicans IAM 4905) [µg/mL] | LD50 [3] [mg/kg] | MIC (Can. tropicalis IAM 4942) [µg/mL] | MIC [4] [µg/mL] | MIC (Staph. aureus FDA 209P) [µg/mL] | inhibiting the growth of P388 leukemia (P388 leukemia; mouse, in vivo) | MIC (Pr. morganii) [µg/mL] | MIC (Staph. aureus Smith) [µg/mL] | MIC [5] [µg/mL] | MIC (Corv. bovis 1810) [µg/mL] | MIC (Mic. flavus) [µg/mL] | MIC (Sar. lutea ATCC 9341) [µg/mL] | inhibitory action against malignant tumors [2, 6] | inhibiting the growth of P388 leukemia (P388 leukemia; [7])
1 | CC[C@@]1(O)C[C@H](O[C@H]2C[C@H](N(C)C)[C@H](O[C@H]3C[C@H](O)[C@H](O[C@H]4CCC(=O)[C@H](C)O4)[C@H](C)O3)[C@H](C)O2)c2c(cc3c(c2O)C(=O)c2c(O)cccc2C3=O)[C@H]1C(=O)OC [Aclacinomycin, reference compound] | 89.7 | – | – | – | – | – | – | – | – | – | – | – | – | – | – | – | – | – | –
2 | CC[C@@]1(O)C[C@H](O[C@H]2C[C@H](N(C)C)[C@H](O[C@H]3C[C@H](O)[C@H](OC4CCC(=O)C(C)O4)[C@H](C)O3)[C@H](C)O2)c2c(cc3c(c2O)C(=O)c2c(O)cccc2C3=O)[C@H]1C(=O)OC (stereo partly drawn) [D-cinerulosyl-2-deoxy-L-fucosyl-L-rhodosaminyl-alkavinone] | 80.7 | 100 (≈ 123 µM) | 1.56 (≈ 1.92 µM) | marked inhibitory action | 3.12 (≈ 3.84 µM) | 100 (≈ 123 µM) | 28.5 | 100 (≈ 123 µM) | 6.25 (≈ 7.7 µM) | 6.25 (≈ 7.7 µM) | effective in inhibiting the growth of malignant tumors | > 100 | 1.56 (≈ 1.92 µM) | 3.12 (≈ 3.84 µM) | 1.56 (≈ 1.92 µM) | 0.2 (≈ 0.246 µM) | 0.78 (≈ 0.961 µM) | – | –
3 | CC[C@@]1(O)C[C@H](O[C@H]2C[C@H](N(C)C)[C@H](O[C@H]3C[C@H](O)[C@H](OC4CCC(=O)C(C)O4)[C@H](C)O3)[C@H](C)O2)c2c(cc3c(c2O)C(=O)c2c(O)ccc(O)c2C3=O)[C@H]1C(=O)OC (stereo partly drawn) [D-cinerulosyl-2-deoxy-L-fucosyl-L-rhodosaminyl-ε-pyrromycinone] | 82.1 | 100 (≈ 121 µM) | 0.78 (≈ 0.942 µM) | marked inhibitory action | 1.56 (≈ 1.88 µM) | > 100 | 17 | > 100 | 6.25 (≈ 7.55 µM) | 3.12 (≈ 3.77 µM) | effective in inhibiting the growth of malignant tumors | > 100 | 1.56 (≈ 1.88 µM) | 3.12 (≈ 3.77 µM) | 0.78 (≈ 0.942 µM) | 0.2 (≈ 0.242 µM) | 0.78 (≈ 0.942 µM) | – | –
4 | CC[C@@]1(O)C[C@H](O[C@H]2C[C@H](NC)[C@H](O[C@H]3C[C@H](O)[C@H](O[C@H]4CCC(=O)[C@H](C)O4)[C@H](C)O3)[C@H](C)O2)c2c(cc3c(c2O)C(=O)c2c(O)cccc2C3=O)[C@H]1C(=O)OC [MA 144-L] | 27.4 | 100 (≈ 125 µM) | 1.56 (≈ 1.96 µM) | – | 3.1 (≈ 3.89 µM) | 100 (≈ 125 µM) | 45.5 | 100 (≈ 125 µM) | 6.25 (≈ 7.83 µM) | 6.25 (≈ 7.83 µM) | – | > 100 | 1.56 (≈ 1.96 µM) | 3.1 (≈ 3.89 µM) | 1.56 (≈ 1.96 µM) | 0.2 (≈ 0.251 µM) | 0.78 (≈ 0.978 µM) | marked inhibitory action | effective in inhibiting the growth of malignant tumors
5 | CC[C@@]1(O)C[C@H](O[C@H]2C[C@H](N(C)C)[C@H](O[C@H]3C[C@H](O)[C@H](O[C@H]4CC[C@H](O)[C@H](C)O4)[C@H](C)O3)[C@H](C)O2)c2c(cc3c(c2O)C(=O)c2c(O)cccc2C3=O)[C@H]1C(=O)OC [MA 144-N1] | 79.2 | > 100 | 0.78 (≈ 0.958 µM) | – | 3.1 (≈ 3.81 µM) | > 100 | 32.5 | > 100 | 3.1 (≈ 3.81 µM) | 6.25 (≈ 7.68 µM) | – | > 100 | 0.78 (≈ 0.958 µM) | > 100 | 0.78 (≈ 0.958 µM) | 0.4 (≈ 0.491 µM) | 0.78 (≈ 0.958 µM) | marked inhibitory action | effective in inhibiting the growth of malignant tumors
6 | CC[C@@]1(O)C[C@H](O[C@H]2C[C@H](N(C)C)[C@H](O[C@H]3C[C@H](O)[C@H](O)[C@H](C)O3)[C@H](C)O2)c2c(cc3c(c2O)C(=O)c2c(O)cccc2C3=O)[C@H]1C(=O)OC [MA 144-S1, 2-deoxy-L-fucosyl-L-rhodosaminyl-aklavinone] | 86 | > 100 | 1.56 (≈ 2.23 µM) | – | 3.1 (≈ 4.43 µM) | > 100 | 24.4 | > 100 | 3.1 (≈ 4.43 µM) | 6.25 (≈ 8.93 µM) | – | > 100 | 3.1 (≈ 4.43 µM) | > 100 | 0.78 (≈ 1.11 µM) | 1.56 (≈ 2.23 µM) | 1.56 (≈ 2.23 µM) | marked inhibitory action | effective in inhibiting the growth of malignant tumors
7 | CC[C@@]1(O)C[C@H](O[C@H]2C[C@H](N(C)C)[C@H](O[C@H]3C[C@H](O)[C@H](O)[C@H](C)O3)[C@H](C)O2)c2c(cc3c(c2O)C(=O)c2c(O)ccc(O)c2C3=O)[C@H]1C(=O)OC [MA 144-S2] | 88.1 | > 100 | 0.78 (≈ 1.09 µM) | – | 3.1 (≈ 4.33 µM) | > 100 | 12.5 | > 100 | 3.1 (≈ 4.33 µM) | 6.25 (≈ 8.73 µM) | – | > 100 | 0.78 (≈ 1.09 µM) | > 100 | 0.78 (≈ 1.09 µM) | 0.78 (≈ 1.09 µM) | 1.56 (≈ 2.18 µM) | – | effective in inhibiting the growth of malignant tumors
8 | CC[C@@]1(O)C[C@H](O[C@H]2C[C@H](N(C)C)[C@H](O[C@H]3C[C@H](O)[C@H](O[C@H]4C[C@H](O)[C@H](O)[C@H](C)O4)[C@H](C)O3)[C@H](C)O2)c2c(cc3c(c2O)C(=O)c2c(O)cccc2C3=O)[C@H]1C(=O)OC [MA 144-U1] | 78.5 | > 100 | 1.56 (≈ 1.88 µM) | – | 3.1 (≈ 3.74 µM) | > 100 | 30.2 | > 100 | 3.1 (≈ 3.74 µM) | 6.25 (≈ 7.53 µM) | – | > 100 | 3.1 (≈ 3.74 µM) | > 100 | 6.25 (≈ 7.53 µM) | 1.56 (≈ 1.88 µM) | 1.56 (≈ 1.88 µM) | marked inhibitory action | effective in inhibiting the growth of malignant tumors
9 | CC[C@@]1(O)C[C@H](O[C@H]2C[C@H](N(C)C)[C@H](O[C@H]3C[C@H](O)[C@H](O[C@H]4C[C@H](O)[C@H](O)[C@H](C)O4)[C@H](C)O3)[C@H](C)O2)c2c(cc3c(c2O)C(=O)c2c(O)ccc(O)c2C3=O)[C@H]1C(=O)OC [MA 144-U2] | 80.5 | > 100 | 1.56 (≈ 1.84 µM) | – | 3.1 (≈ 3.66 µM) | > 100 | 14.5 | > 100 | 1.56 (≈ 1.84 µM) | 3.1 (≈ 3.66 µM) | effective in inhibiting the growth of malignant tumors | > 100 | 0.78 (≈ 0.922 µM) | > 100 | 6.25 (≈ 7.39 µM) | 0.78 (≈ 0.922 µM) | 1.56 (≈ 1.84 µM) | – | –
10 | CC[C@@]1(O)C[C@H](O[C@H]2C[C@H](N(C)C)[C@H](O[C@H]3C[C@H](O)[C@H](O[C@H]4C=CC(=O)[C@H](C)O4)[C@H](C)O3)[C@H](C)O2)c2c(cc3c(c2O)C(=O)c2c(O)cccc2C3=O)[C@H]1C(=O)OC [MA 144-Y] | 90.2 | > 100 | 0.1 (≈ 0.123 µM) | – | 0.2 (≈ 0.247 µM) | > 100 | 40 to 50 | > 100 | 0.2 (≈ 0.247 µM) | 0.4 (≈ 0.494 µM) | – | > 100 | 0.2 (≈ 0.247 µM) | 3.1 (≈ 3.83 µM) | 0.2 (≈ 0.247 µM) | 0.1 (≈ 0.123 µM) | 0.2 (≈ 0.247 µM) | marked inhibitory action | effective in inhibiting the growth of malignant tumors
